Measurements taken from patent publication US11807835B2, “Detergent compositions containing a stabilized enzyme by phosphonates” (ECOLAB USA INC., priority 2016, dated 2023).

What was measured:
[1] = test system: enzyme (protease, amylase, lipase); assay: Overall effects of phosphonates on enzyme activity (Table 3); format: biochemical; conditions: overall effect of the phosphonate on enzyme activity in the detergent use solution
Procedure: The enzyme activities in the detergents with different phosphonate levels were tested at 4000 ppm in 5 grains per gallon (GPG) water at 120° F. with various time points collected up to 4 hours, after a use solution was generated from the detergent composition. During the tests, the samples at different time points were collected and immediately frozen in an acetone/dry ice bath and stored in −80° C. before the activity of the enzyme was evaluated. For the use of such an assay, t=0 min was the reference point for 100% enzyme activity.
(§1) Assays of enzyme activity in formulations (% retention) were conducted to simulate a presoak condition in a beaker using the chemistry, temperature, and pH conditions relevant to manual warewash or presoak applications. Enzyme activity is an indicator of the stability of the enzyme in the detergent, specifically in an aqueous use solution within a sump (which is under conditions of high pH, temperature and dilution).
The relative enzyme activities in a use solution of the tested detergent compositions containing a different phosphonate at different concentrations over a period time are listed in Table 4A-Table 4E, Table 5A-Table 5E, and Table 6A-Table 6F.

[2] = test system: lipase; assay: Lipase activity retention in detergent use solution (4000 ppm, 5 GPG water; p-nitrophenyl valerate, TRIS buffer pH 8.0); format: biochemical; conditions: for Relative Lipase Enzyme Activity in a Use Solution: Table 6E, room temperature; for Relative Lipase Enzyme Activity in a Use Solution of the All Ash Detergent Composition: Table 6F, all ash formula, 120º F.; for Relative Lipase Enzyme Activity: base formula
Procedure: The enzyme […] collected up to 4 hours, after a use solution was generated from the detergent composition. During the tests, the samples at different time points were collected and immediately frozen in an acetone/dry ice bath and stored in −80° C. before the activity of the enzyme was evaluated. For the use of such an assay, t=0 min was the reference point for 100% enzyme activity.
as §1
Enzyme activity under presoak or manual warewash conditions was traced quantitatively using a standard protease assay. Samples were prepared under bench top conditions, whereby the use solution from a detergent composition or detergent was obtained and maintained at a presoak or manual warewash temperature in a stirring water bath. After the time course for assessing enzyme stability is initiated, aliquots were taken at various time points and flash-frozen. A time=0 sample was prepared for each series by dissolving the detergent formulation at room temperature, mixing thoroughly, and flash freezing. Samples were thawed and diluted as necessary in an assay buffer usually for use in the protease assay. A glycine buffer at pH 9.0 is used here. The assay monitored the direct reaction of the protease on a small, commercially available peptidyl substrate, with liberation of the product providing correlation to the active enzyme content. The product was detected using a plate reader with an appreciable dynamic range (upper absorbance limit of the instrument >3.5). Enzyme activity levels were assessed relative to a calibration curve with average values for replicate tests used to map protease stability under presoak or manual warewash use conditions. Enzyme retention at each time point was calculated as the % enzyme activity relative to the time=0 sample.
The analysis by lipase and amylase assay was conducted similarly, except with a different substrate and buffers. For lipase activity, the substrate is p-nitrophenyl valerate, and for amylase, the substrate is an ethylidene substrate (EPS). The buffer used in lipase assay is TRIS (Tris(hydroxymethyl)aminomethane) buffer at pH 8.0, and in amylase assay HEPES (4-(2-hydroxyethyl)-1-piperazineethanesulfonic acid) buffer at pH 8.0.

[3] = phosphonate 0.3 wt-%, time 0 min
[4] = phosphonate 0.3 wt-%, time 5 min
[5] = phosphonate 0.3 wt-%, time 10 min
[6] = phosphonate 0.3 wt-%, time 20 min
[7] = phosphonate 0.3 wt-%, time 40 min
[8] = phosphonate 0.3 wt-%, time 60 min
[9] = phosphonate 0.3 wt-%, time 90 min
[10] = phosphonate 0.3 wt-%, time 120 min
[11] = phosphonate 0.3 wt-%, time 150 min
[12] = phosphonate 0.3 wt-%, time 180 min
[13] = phosphonate 0.3 wt-%, time 210 min
[14] = phosphonate 0.3 wt-%, time 240 min

Structure (SMILES): O=C(O)CCC(CC(=O)O)(C(=O)O)P(=O)(O)O (stereo not shown) [PBTC, Phosphonebutane tricarboxylic acid]
- Stability (effects on enzyme activity) [1]: No
- Relative Lipase Enzyme Activity in a Use Solution [2, 3]: 100.00%
- Relative Lipase Enzyme Activity in a Use Solution [2, 4]: 84.82%
- Relative Lipase Enzyme Activity in a Use Solution [2, 5]: 101.70%
- Relative Lipase Enzyme Activity in a Use Solution [2, 6]: 98.72%
- Relative Lipase Enzyme Activity in a Use Solution [2, 7]: 109.31%
- Relative Lipase Enzyme Activity in a Use Solution [2, 8]: 103.07%
- Relative Lipase Enzyme Activity in a Use Solution [2, 9]: 104.82%
- Relative Lipase Enzyme Activity in a Use Solution [2, 10]: 102.36%
- Relative Lipase Enzyme Activity in a Use Solution [2, 11]: 105.67%
- Relative Lipase Enzyme Activity in a Use Solution [2, 12]: 81.94%
- Relative Lipase Enzyme Activity in a Use Solution [2, 13]: 101.51%
- Relative Lipase Enzyme Activity in a Use Solution [2, 14]: 110.35%
- Relative Lipase Enzyme Activity in a Use Solution of the All Ash Detergent Composition [2, 3]: 100.00%
- Relative Lipase Enzyme Activity in a Use Solution of the All Ash Detergent Composition [2, 4]: 44.27%
- Relative Lipase Enzyme Activity in a Use Solution of the All Ash Detergent Composition [2, 5]: 26.34%
- Relative Lipase Enzyme Activity in a Use Solution of the All Ash Detergent Composition [2, 6]: 13.39%
- Relative Lipase Enzyme Activity in a Use Solution of the All Ash Detergent Composition [2, 7]: 3.62%
- Relative Lipase Enzyme Activity in a Use Solution of the All Ash Detergent Composition [2, 8]: 1.82%
- Relative Lipase Enzyme Activity in a Use Solution of the All Ash Detergent Composition [2, 9]: 0.36%
- Relative Lipase Enzyme Activity in a Use Solution of the All Ash Detergent Composition [2, 10]: 0.52%
- Relative Lipase Enzyme Activity in a Use Solution of the All Ash Detergent Composition [2, 11]: 2.28%
- Relative Lipase Enzyme Activity in a Use Solution of the All Ash Detergent Composition [2, 12]: 2.33%
- Relative Lipase Enzyme Activity in a Use Solution of the All Ash Detergent Composition [2, 13]: 3.25%
- Relative Lipase Enzyme Activity in a Use Solution of the All Ash Detergent Composition [2, 14]: 3.58%
- Relative Lipase Enzyme Activity ([2]; phosphonate 0.3 wt-%, use solution at 120° F., time 0 min): 100.00%
- Relative Lipase Enzyme Activity ([2]; phosphonate 0.3 wt-%, use solution at 120° F., time 5 min): 73.63%
- Relative Lipase Enzyme Activity ([2]; phosphonate 0.3 wt-%, use solution at 120° F., time 10 min): 66.55%
- Relative Lipase Enzyme Activity ([2]; phosphonate 0.3 wt-%, use solution at 120° F., time 20 min): 48.22%
- Relative Lipase Enzyme Activity ([2]; phosphonate 0.3 wt-%, use solution at 120° F., time 40 min): 26.23%
- Relative Lipase Enzyme Activity ([2]; phosphonate 0.3 wt-%, use solution at 120° F., time 60 min): 15.51%
- Relative Lipase Enzyme Activity ([2]; phosphonate 0.3 wt-%, use solution at 120° F., time 90 min): 7.72%
- Relative Lipase Enzyme Activity ([2]; phosphonate 0.3 wt-%, use solution at 120° F., time 120 min): 3.90%
- Relative Lipase Enzyme Activity ([2]; phosphonate 0.3 wt-%, use solution at 120° F., time 150 min): 2.70%
- Relative Lipase Enzyme Activity ([2]; phosphonate 0.3 wt-%, use solution at 120° F., time 180 min): −0.75%
- Relative Lipase Enzyme Activity ([2]; phosphonate 0.3 wt-%, use solution at 120° F., time 210 min): −1.86%
- Relative Lipase Enzyme Activity ([2]; phosphonate 0.3 wt-%, use solution at 120° F., time 240 min): −2.20%
- Relative Lipase Enzyme Activity ([2]; phosphonate 0.6 wt-%, use solution at 120º F., time 0 min): 100.00%
- Relative Lipase Enzyme Activity ([2]; phosphonate 0.6 wt-%, use solution at 120º F., time 5 min): 61.52%
- Relative Lipase Enzyme Activity ([2]; phosphonate 0.6 wt-%, use solution at 120º F., time 10 min): 62.20%
- Relative Lipase Enzyme Activity ([2]; phosphonate 0.6 wt-%, use solution at 120º F., time 20 min): 44.99%
- Relative Lipase Enzyme Activity ([2]; phosphonate 0.6 wt-%, use solution at 120º F., time 40 min): 31.89%
- Relative Lipase Enzyme Activity ([2]; phosphonate 0.6 wt-%, use solution at 120º F., time 60 min): 23.30%
- Relative Lipase Enzyme Activity ([2]; phosphonate 0.6 wt-%, use solution at 120º F., time 90 min): 16.36%
- Relative Lipase Enzyme Activity ([2]; phosphonate 0.6 wt-%, use solution at 120º F., time 120 min): 12.11%
- Relative Lipase Enzyme Activity ([2]; phosphonate 0.6 wt-%, use solution at 120º F., time 150 min): 9.68%
- Relative Lipase Enzyme Activity ([2]; phosphonate 0.6 wt-%, use solution at 120º F., time 180 min): 6.06%
- Relative Lipase Enzyme Activity ([2]; phosphonate 0.6 wt-%, use solution at 120º F., time 210 min): 6.80%
- Relative Lipase Enzyme Activity ([2]; phosphonate 0.6 wt-%, use solution at 120º F., time 240 min): 5.96%
- Relative Lipase Enzyme Activity ([2]; phosphonate at 0.1% elemental phosphorus, at 120º F. or at room temperature (as titled), time 0 min): 100.00%
- Relative Lipase Enzyme Activity ([2]; phosphonate at 0.1% elemental phosphorus, at 120º F. or at room temperature (as titled), time 5 min): 87.75%
- Relative Lipase Enzyme Activity ([2]; phosphonate at 0.1% elemental phosphorus, at 120º F. or at room temperature (as titled), time 10 min): 73.69%
- Relative Lipase Enzyme Activity ([2]; phosphonate at 0.1% elemental phosphorus, at 120º F. or at room temperature (as titled), time 20 min): 56.53%
- Relative Lipase Enzyme Activity ([2]; phosphonate at 0.1% elemental phosphorus, at 120º F. or at room temperature (as titled), time 40 min): 25.32%
- Relative Lipase Enzyme Activity ([2]; phosphonate at 0.1% elemental phosphorus, at 120º F. or at room temperature (as titled), time 60 min): 19.97%
- Relative Lipase Enzyme Activity ([2]; phosphonate at 0.1% elemental phosphorus, at 120º F. or at room temperature (as titled), time 90 min): 15.95%
- Relative Lipase Enzyme Activity ([2]; phosphonate at 0.1% elemental phosphorus, at 120º F. or at room temperature (as titled), time 120 min): 12.52%
- Relative Lipase Enzyme Activity ([2]; phosphonate at 0.1% elemental phosphorus, at 120º F. or at room temperature (as titled), time 150 min): 11.11%
- Relative Lipase Enzyme Activity ([2]; phosphonate at 0.1% elemental phosphorus, at 120º F. or at room temperature (as titled), time 180 min): 10.01%
- Relative Lipase Enzyme Activity ([2]; phosphonate at 0.1% elemental phosphorus, at 120º F. or at room temperature (as titled), time 210 min): 9.16%
- Relative Lipase Enzyme Activity ([2]; phosphonate at 0.1% elemental phosphorus, at 120º F. or at room temperature (as titled), time 240 min): 9.12%
